# Measured values taken from patent US20050209244A1, “N{5-[4-(4-methyl-piperazino-methyl)-benzoylamido]-2-methylphenyl}-4-(3-pyridyl)-2-pyrimidine-amine coated stents” (priority 2002, published 2005).
# Experiments:
# [1] = test system: neointimal lesion formation; assay: 28 day rat carotid artery balloon injury model; format: in vivo; conditions: for percent inhibition of neointimal lesion formation: 28 days post-balloon injury
# Procedure: Compounds of formula I are tested in the following rat model.
# Rats are dosed orally with placebo or a compound of formula 1. Daily dosing starts 3 days prior to surgery and continues for 31 days. Rat carotid arteries are balloon injured using a method described by Clowes et al., Lab. Invest. 1983;49;208-215. Following sacrifice at 28 days post-balloon Injury, carotid arteries are removed and processed for histologic and morphometric evaluation.
# [2] = test system: restenotic lesion formation; assay: Rabbit iliac stent model, restenosis at 28 days; format: in vivo, New Zealand White rabbit
# Procedure: A combined angioplasty and stenting procedure is performed in New Zealand White rabbit iliac arteries. Iliac artery balloon injury is performed by inflating a 3.0×9.0 mm angioplasty balloon in the mid-portion of the artery followed by “pull-back” of the catheter for 1 balloon length. Balloon injury is repeated 2 times, and a 3.0×12 mm stent is deployed at 6 atm for 30 seconds in the iliac artery. Balloon injury and stent placement is then performed on the contralateral iliac artery in the same manner. A post-stent deployment angiogram is performed. All animals receive oral aspirin 40 mg/day daily as anti-platelet therapy and are fed standard low-cholesterol rabbit chow. Twenty-eight days after stenting, animals are anesthetized and euthanized and the arterial tree is perfused at 100 mmHg with lactated Ringer's for several minutes, then perfused with 10% formalin at 100 mmHg for 15 minutes. The vascular section between the distal aorta and the proximal femoral arteries is excised and cleaned of periadventitial tissue. The stented section of artery is embedded in plastic and sections are taken from the proximal, middle, and distal portions of each stent. All sections are stained with hematoxylin-eosin and Movat pentachrome stains. Computerized planimetry is performed to determine the area of the internal elastic lamina (IEL), external elastic lamina (EEL) and lumen. The neointima and neointimal thickness is measured both at and between the stent struts. The vessel area is measured as the area within the EEL. Data are expressed as mean±SEM. Statistical analysis of the histologic data is accomplished using analysis of variance (ANOVA) due to the fact that two stented arteries are measured per animal with a mean generated per animal. A P<0.05 is considered statistically significant.
# COMPOUND is administered orally by gavage at 30 mg/kg once daily from 3 days prior to stenting until day 27 post-stenting. […] There is extensive neointimal formation in placebo-treated animals at 28 days, with the lesions consisting of abundant smooth muscle cells in proteoglycan/collagen matrix and apparent full endothelial healing. In arterial segments from the animals treated with COMPOUND I, the Intima is well healed, characterized by a compact neointima consisting of smooth muscle cells and endothelium fully covering the lumen surface both over stent struts and between struts.
# [3] = test system: platelet-derived growth factor (PDGF) receptor; conditions: in vitro; cited from earlier work
# α-PDGF receptor = α-PDGF receptor (Homo sapiens, UniProt P16234); conditions: cited from earlier work
# Chain of α-PDGF receptor (P16234 24-1089): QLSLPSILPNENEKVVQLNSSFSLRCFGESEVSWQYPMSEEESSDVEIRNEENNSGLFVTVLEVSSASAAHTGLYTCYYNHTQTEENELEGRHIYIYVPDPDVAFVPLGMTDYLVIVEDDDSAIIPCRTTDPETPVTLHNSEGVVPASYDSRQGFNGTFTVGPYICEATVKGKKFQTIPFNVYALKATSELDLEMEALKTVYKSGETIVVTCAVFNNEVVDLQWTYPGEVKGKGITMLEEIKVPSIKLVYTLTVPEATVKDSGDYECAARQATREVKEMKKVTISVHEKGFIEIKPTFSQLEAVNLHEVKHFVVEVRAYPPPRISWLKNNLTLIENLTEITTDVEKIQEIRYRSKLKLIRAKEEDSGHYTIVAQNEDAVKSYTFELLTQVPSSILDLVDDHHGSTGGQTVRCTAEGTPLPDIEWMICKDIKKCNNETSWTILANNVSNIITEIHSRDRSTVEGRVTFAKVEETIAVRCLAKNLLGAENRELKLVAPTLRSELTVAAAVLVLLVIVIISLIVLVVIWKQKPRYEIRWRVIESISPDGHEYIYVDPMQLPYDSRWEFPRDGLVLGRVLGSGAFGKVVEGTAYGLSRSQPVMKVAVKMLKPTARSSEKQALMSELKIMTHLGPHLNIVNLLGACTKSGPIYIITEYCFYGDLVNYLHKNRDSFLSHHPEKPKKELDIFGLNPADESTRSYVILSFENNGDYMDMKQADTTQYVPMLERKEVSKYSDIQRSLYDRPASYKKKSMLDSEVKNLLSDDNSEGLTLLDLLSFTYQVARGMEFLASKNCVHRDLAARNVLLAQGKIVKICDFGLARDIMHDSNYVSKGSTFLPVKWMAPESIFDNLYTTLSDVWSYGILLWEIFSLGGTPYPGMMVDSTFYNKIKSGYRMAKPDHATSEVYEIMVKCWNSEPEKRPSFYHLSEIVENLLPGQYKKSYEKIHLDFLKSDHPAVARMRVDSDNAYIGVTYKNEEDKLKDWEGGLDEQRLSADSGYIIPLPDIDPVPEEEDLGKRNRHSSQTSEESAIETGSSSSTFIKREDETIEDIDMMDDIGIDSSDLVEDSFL
# β-PDGF receptor = β-PDGF receptor (Homo sapiens, UniProt P09619); conditions: cited from earlier work
# Flt-3 = biological target: T1, Flt-3 (Homo sapiens, UniProt P36888); conditions: cited from earlier work
# T1 sequence (P36888 27-993): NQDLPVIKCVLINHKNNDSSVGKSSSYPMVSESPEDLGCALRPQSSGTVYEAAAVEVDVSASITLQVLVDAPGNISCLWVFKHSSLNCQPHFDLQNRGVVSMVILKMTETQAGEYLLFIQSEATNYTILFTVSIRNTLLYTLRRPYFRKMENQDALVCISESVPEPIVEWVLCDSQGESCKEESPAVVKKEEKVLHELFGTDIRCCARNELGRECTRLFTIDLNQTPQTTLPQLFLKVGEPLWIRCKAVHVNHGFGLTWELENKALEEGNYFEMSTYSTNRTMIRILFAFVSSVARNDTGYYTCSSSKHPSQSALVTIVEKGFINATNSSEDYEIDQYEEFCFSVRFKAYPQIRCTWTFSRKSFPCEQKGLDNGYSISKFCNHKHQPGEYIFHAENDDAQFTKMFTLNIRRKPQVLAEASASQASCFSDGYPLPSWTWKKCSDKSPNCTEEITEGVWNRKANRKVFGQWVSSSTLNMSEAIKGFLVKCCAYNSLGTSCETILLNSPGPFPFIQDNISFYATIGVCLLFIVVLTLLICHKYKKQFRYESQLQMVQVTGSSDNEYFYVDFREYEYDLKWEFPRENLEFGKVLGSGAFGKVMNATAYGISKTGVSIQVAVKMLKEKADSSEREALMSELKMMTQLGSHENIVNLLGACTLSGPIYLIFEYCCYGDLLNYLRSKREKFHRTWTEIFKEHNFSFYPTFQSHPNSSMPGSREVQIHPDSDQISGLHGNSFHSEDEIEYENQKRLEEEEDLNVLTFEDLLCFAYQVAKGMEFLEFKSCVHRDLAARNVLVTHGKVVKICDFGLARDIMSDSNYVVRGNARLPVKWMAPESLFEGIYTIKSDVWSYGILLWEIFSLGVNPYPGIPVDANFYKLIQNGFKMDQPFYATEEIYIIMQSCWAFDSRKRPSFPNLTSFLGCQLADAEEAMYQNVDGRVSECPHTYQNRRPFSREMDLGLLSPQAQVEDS
# Kdr = Kdr (Homo sapiens, UniProt P35968); conditions: cited from earlier work
# Chain of Kdr (P35968 20-1356, species assumed): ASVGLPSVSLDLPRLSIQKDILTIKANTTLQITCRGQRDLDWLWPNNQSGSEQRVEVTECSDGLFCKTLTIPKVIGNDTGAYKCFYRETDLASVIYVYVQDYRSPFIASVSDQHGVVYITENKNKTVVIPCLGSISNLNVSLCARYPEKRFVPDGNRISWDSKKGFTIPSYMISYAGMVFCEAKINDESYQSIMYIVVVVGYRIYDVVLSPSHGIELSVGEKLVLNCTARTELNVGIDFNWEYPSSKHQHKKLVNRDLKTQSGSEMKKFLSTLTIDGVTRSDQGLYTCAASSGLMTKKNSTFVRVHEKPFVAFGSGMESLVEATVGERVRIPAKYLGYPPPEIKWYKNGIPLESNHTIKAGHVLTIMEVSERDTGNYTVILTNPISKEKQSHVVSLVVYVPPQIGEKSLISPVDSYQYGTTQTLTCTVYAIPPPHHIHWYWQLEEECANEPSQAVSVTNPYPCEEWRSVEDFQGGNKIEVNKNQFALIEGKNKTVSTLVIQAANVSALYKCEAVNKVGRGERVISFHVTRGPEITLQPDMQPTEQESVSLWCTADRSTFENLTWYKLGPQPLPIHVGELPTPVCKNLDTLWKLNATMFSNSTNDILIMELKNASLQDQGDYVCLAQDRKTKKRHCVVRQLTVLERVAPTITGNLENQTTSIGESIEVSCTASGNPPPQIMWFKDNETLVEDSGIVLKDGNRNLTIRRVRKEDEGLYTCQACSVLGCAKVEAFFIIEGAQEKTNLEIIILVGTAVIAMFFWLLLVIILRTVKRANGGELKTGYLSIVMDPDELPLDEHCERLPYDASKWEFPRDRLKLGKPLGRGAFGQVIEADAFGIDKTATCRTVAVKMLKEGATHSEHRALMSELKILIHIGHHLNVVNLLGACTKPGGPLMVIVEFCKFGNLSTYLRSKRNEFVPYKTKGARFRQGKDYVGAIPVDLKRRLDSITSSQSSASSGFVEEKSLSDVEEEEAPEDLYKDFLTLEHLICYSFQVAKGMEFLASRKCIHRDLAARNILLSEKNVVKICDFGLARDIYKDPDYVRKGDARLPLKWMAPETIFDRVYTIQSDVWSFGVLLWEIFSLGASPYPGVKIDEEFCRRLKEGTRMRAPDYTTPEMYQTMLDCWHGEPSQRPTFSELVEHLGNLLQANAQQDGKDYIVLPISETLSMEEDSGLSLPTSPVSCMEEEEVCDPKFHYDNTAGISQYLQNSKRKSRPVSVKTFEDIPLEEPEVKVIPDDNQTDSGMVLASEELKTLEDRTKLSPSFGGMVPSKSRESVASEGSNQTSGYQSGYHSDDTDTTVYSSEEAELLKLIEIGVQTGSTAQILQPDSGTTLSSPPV
# Flt-1 = Flt-1 (Homo sapiens, UniProt P17948); conditions: cited from earlier work
# Chain of Flt-1 (P17948 27-1338, species assumed): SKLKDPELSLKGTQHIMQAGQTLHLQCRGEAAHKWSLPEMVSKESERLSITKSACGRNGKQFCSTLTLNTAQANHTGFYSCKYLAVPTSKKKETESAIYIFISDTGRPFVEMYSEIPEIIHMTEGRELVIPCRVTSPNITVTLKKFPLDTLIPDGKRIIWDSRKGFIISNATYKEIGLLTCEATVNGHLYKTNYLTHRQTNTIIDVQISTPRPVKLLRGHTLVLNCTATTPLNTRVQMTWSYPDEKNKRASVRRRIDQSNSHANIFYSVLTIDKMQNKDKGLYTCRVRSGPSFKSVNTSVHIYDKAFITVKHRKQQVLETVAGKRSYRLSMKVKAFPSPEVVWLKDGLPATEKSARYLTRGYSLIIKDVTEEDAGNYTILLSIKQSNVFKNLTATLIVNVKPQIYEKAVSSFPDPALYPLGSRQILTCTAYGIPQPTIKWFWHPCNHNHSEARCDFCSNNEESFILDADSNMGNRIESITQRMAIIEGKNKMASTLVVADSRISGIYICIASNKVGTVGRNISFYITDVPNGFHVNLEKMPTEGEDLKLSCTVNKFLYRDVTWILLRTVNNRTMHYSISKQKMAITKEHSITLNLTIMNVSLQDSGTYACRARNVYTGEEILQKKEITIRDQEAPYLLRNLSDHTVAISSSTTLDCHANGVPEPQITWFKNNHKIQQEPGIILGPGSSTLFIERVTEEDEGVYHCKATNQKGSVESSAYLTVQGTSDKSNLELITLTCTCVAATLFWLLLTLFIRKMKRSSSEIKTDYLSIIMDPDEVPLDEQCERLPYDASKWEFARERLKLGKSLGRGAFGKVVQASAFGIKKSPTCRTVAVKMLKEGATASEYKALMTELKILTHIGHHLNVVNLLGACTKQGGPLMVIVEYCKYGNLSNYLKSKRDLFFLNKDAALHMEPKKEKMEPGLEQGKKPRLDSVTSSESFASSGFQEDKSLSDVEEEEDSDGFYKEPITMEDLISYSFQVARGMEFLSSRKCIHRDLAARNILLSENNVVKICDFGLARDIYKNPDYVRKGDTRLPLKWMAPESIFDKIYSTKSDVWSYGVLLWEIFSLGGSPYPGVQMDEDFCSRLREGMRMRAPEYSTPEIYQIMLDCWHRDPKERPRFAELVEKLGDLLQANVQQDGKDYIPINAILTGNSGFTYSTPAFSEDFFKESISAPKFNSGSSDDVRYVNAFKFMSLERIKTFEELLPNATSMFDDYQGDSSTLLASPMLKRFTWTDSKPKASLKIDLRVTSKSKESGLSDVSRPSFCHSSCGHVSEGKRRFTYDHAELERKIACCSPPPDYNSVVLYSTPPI
# Tek = Tek (Homo sapiens, UniProt Q02763); conditions: cited from earlier work
# Chain of Tek (Q02763 23-1124, species assumed): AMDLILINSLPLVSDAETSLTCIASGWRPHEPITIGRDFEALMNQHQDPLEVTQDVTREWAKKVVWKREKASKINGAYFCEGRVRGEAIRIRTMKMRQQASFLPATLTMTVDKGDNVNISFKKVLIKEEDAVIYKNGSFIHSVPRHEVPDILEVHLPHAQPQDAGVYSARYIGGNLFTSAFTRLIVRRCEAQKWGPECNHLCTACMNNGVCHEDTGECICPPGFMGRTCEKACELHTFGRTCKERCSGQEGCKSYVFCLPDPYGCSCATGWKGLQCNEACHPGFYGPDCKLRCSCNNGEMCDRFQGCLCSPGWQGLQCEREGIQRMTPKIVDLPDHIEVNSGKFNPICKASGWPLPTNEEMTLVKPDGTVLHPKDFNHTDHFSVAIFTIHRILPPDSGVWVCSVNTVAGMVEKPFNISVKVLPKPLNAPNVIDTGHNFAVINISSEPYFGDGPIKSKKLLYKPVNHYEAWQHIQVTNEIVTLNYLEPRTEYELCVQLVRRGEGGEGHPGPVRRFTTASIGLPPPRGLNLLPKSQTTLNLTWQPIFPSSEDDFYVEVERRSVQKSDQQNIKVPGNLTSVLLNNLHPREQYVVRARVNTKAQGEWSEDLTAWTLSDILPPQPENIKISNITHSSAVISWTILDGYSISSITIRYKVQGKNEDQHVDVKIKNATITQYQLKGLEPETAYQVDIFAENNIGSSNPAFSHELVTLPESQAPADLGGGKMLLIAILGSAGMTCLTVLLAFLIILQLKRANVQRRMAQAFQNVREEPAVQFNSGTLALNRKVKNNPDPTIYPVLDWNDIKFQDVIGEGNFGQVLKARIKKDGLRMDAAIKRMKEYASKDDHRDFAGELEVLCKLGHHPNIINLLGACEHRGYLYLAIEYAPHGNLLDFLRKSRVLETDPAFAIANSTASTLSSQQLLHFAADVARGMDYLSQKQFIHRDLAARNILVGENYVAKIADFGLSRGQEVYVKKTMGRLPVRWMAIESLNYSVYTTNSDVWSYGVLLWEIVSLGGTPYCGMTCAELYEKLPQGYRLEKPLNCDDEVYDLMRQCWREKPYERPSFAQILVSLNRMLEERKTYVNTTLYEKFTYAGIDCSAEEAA
# c-Met = c-Met (Homo sapiens, UniProt P08581); conditions: cited from earlier work
# Jak-2 = Jak-2 (Homo sapiens, UniProt O60674); conditions: cited from earlier work
# [4] = biological target: receptor for stem cell factor (Homo sapiens, UniProt P10721); conditions: cited from earlier work
# [5] = in conjunction with COMPOUND I
# Source text: Data points just spanning the IC50 of the agents alone or in combination are entered into the CalcuSyn program (CalcuSyn, Biosoft, Cambridge UK).
# [6] = 30 mg/kg orally once daily, 28 days after stenting
compound,measurement,setting,value
"Cc1ccc(NC(=O)c2ccc(CN3CCN(C)CC3)cc2)cc1Nc1nccc(-c2cccnc2)n1 [COMPOUND I, N-{5-[4-(4-methyl-piperazino-methyl)-benzoylamido]-2-methylphenyl}-4-(3-pyridyl)-2-pyrimidine-amine]",percent inhibition of neointimal lesion formation,[1]; 0.5 mg/kg oral daily,17%
same,percent inhibition of neointimal lesion formation,[1]; 2.0 mg/kg oral daily,37%
same,neointimal lesion formation at 28 days following balloon injury,"[1]; oral daily, dose of from 0.2 to 3.5 mg, preferably 0.5 to 2.0 mg/kg",significantly reduce
same,EEL area compared with control,[2]; [6],did not result in differences
same,intima healing in arterial segments,[2]; [6],well healed
same,reduction in average neointimal thickness,"[2]; 30 mg/kg orally once daily, 28 days after stenting, vs placebo, P<0.0001",29%
same,reduction in percent arterial stenosis,"[2]; 30 mg/kg orally once daily, 28 days after stenting, vs placebo, P<0.0002",17%
same,reduction in neointimal area,"[2]; 30 mg/kg orally once daily, 28 days after stenting, vs placebo, P<0.04",17%
same,fibrin deposit,"[2]; rabbit iliac arteries, in-stent",reduced
same,inhibition of PDGF receptor tyrosine kinase,[3],selectively inhibits
same,inhibition of kinase activity of α-PDGF receptor,α-PDGF receptor,potently inhibit
same,inhibition of kinase activity of β-PDGF receptor,β-PDGF receptor,potently inhibit
same,inhibition of kinase activity of Flt-3,Flt-3,not
same,inhibition of kinase activity of Kdr,Kdr,not
same,inhibition of kinase activity of Flt-1,Flt-1,not
same,inhibition of kinase activity of Tek,Tek,not
same,inhibition of c-Met,c-Met,no inhibition
same,inhibition of Jak-2,Jak-2,no inhibition
same,inhibition of kinase activity of the receptor for stem cell factor,[4],potently inhibit
"CC(=O)O[C@H]1C(=O)[C@@]2(C)[C@H]([C@H](OC(=O)c3ccccc3)[C@]3(O)C[C@H](OC(=O)[C@H](O)[C@@H](NC(=O)c4ccccc4)c4ccccc4)C(C)=C1C3(C)C)[C@]1(OC(C)=O)CO[C@@H]1C[C@@H]2O [Taxol, taxol]",interaction with COMPOUND I in combination,[5],Slight synergism or synergy
"CC[C@]1(O)C[C@@H]2CN(CCc3c([nH]c4ccccc34)[C@@](C(=O)OC)(c3cc4c(cc3OC)N(C)[C@H]3[C@@](O)(C(=O)OC)[C@H](OC(C)=O)[C@]5(CC)C=CCN6CC[C@]43[C@@H]65)C2)C1 [Vinblastine, vinblastine]",interaction with COMPOUND I in combination,[5],Slight synergism or synergy
COc1cccc2c1C(=O)c1c(O)c3c(c(O)c1C2=O)C[C@@](O)(C(=O)CO)C[C@@H]3O[C@H]1C[C@H](N)[C@H](O)[C@H](C)O1 [doxorubicin],interaction with COMPOUND I in combination,[5],Slight synergism or synergy
